pEC50: −log10 of the molar value.
Columns and labels:
[1] = 1,1-diphenyl-2-picryl hydrazyl (DPPH) radical scavenging assay; type: biochemical; conditions: for DPPH scavenging activity: 10-200 μM tested, data not shown
Method: Then, the scavenging capacity was measured by monitoring the decrease in absorbance at 517 nm by a Thermo Scientific Multiskan GO Microplate Spectrophotometer.

293 ATXN3/Q75-GFP cells = assay: ATXN3/Q75 aggregation assay in 293 cells (high-content analysis); type: cell-based, human; conditions: 8 hr pretreatment, doxycycline and oxaliplatin 6 days
Method: The isogenic ATXN3/[…]-75 cell line was employed, which was formed from subjecting the Flp-InTM-293 cells to targeting insertion of the pcDNA5/FRT/TO-ATXN3/[…] and […] recombinant plasmids. These cell lines were grown in medium containing 5 μg/mL blasticidin and 100 μg/mL hygromycin (InvivoGen). In addition, the method for culture in establishment of the human SH-SY5Y derived Flp-In host cell line and the formation of the isogenic ATXN3/[…]-75 cell line was the same. […] Then doxycycline (10 μg/mL, BD) and oxaliplatin (5 μM, Sigma) were added for 6 days.

[2] = MTT cytotoxicity assay in HEK-293 cells; type: cell-based; conditions: human, one day treatment
Method: (§1) Cells (5×10^4/well in 48-well dishes) were cultivated at 37° C. incubator containing 5% CO2 for 20 hr and treated with different concentrations of the Gardenia jasminoides extract (5-30 mg/mL) or pure compound (100 nM-1 mM). After one day, 20 μL MTT (3,[4,5-dimethylthiazol-2-yl]-2,5-diphenyl-tetrazolium bromide, 5 mg/mL in PBS; Sigma-Aldrich) was added to cells and incubated for 2 hr. The absorbance of the purple formazan dye was measured at 570 nm by a Bio-Tek μQuant Universal Microplate Spectrophotometer.

[3] = MTT cytotoxicity assay in SH-SY5Y cells; type: cell-based; conditions: human, one day treatment
Method: as §1

[4] = test system: SH-SY5Y ATXN3/Q75-GFP cells; assay: ATXN3/Q75 aggregation assay in retinoic acid-differentiated SH-SY5Y cells; type: cell-based, human; conditions: one week
Method: Flp-InTM-293 cells derived from human 293 (Invitrogen) were cultured as described above. The isogenic ATXN3/[…]-75 cell line was employed, which was formed from subjecting the Flp-InTM-293 cells to targeting insertion of the pcDNA5/FRT/TO-ATXN3/[…] and […] recombinant plasmids. These cell lines were grown in medium containing 5 μg/mL blasticidin and 100 μg/mL hygromycin (InvivoGen). In addition, the method for culture in establishment of the human SH-SY5Y derived Flp-In host cell line and the formation of the isogenic ATXN3/[…]-75 cell line was the same. […] After that, cells were stained with Hoechst 33342 (0.1 μg/mL) and aggregation percentage was assessed as described.

Q: With `O=c1c(O)c(-c2ccc(O)cc2)oc2cc(O)cc(O)c12` [kaempferol, reference compound] as the molecule, how does the pEC50 ([1]; 100 μM DPPH, 30 min room temperature) read?
A: 4.57

Q: With `O=C(CCCCCCC(=O)Nc1ccccc1)NO` [SAHA, suberoylanilide hydroxamic acid, reference compound] as the molecule, how does the “ATXN3/Q75 aggregation as compared to untreated cells” value (293 ATXN3/Q75-GFP cells; at 100 nM) read?
A: 85.9%

Q: Which results are given for `CC(/C=C/C=C(\C)C(=O)O[C@@H]1O[C@H](CO[C@@H]2O[C@H](CO)[C@@H](O)[C@H](O)[C@H]2O)[C@@H](O)[C@H](O)[C@H]1O)=C\C=C\C=C(C)\C=C\C=C(/C)C(=O)O[C@@H]1O[C@H](CO[C@@H]2O[C@H](CO)[C@@H](O)[C@H](O)[C@H]2O)[C@@H](O)[C@H](O)[C@H]1O` [crocin]?
A: IC50 at 1 day [2]: > 1000 µM; IC50 at 1 day [3]: 970 µM; ATXN3/Q75 aggregation as compared to untreated cells (293 ATXN3/Q75-GFP cells; at 100 nM): 81.5%; aggregation reduction in ATXN3/Q75 expressed neuronal cells ([4]; 100 nM): 21%

Q: Which IC50 at 1 day [2] does the source give for `COC(=O)C1=CO[C@@H](O[C@@H]2O[C@H](CO)[C@@H](O)[C@H](O)[C@H]2O)[C@@H]2C(CO)=CC[C@H]12` [geniposide] here?
A: > 1000 µM

Q: And the IC50 at 1 day [3]?
A: > 1000 µM

Q: What about the “ATXN3/Q75 aggregation as compared to untreated cells” value (293 ATXN3/Q75-GFP cells; at 500 nM) of the same molecule?
A: 82.3%

Q: And the DPPH scavenging activity [1]?
A: no detectable DPPH scavenging activity

Q: And the “aggregation reduction in ATXN3/Q75 expressed neuronal cells” value ([4]; 500 nM)?
A: 21%

Q: What does the source list for `COC(=O)C1=CO[C@@H](O)[C@@H]2C(CO)=CC[C@H]12` [genipin]?
A: IC50 at 1 day [2]: 580 µM; IC50 at 1 day [3]: 100 µM; DPPH scavenging activity [1]: no detectable DPPH scavenging activity; aggregation reduction in ATXN3/Q75 expressed neuronal cells ([4]; 500 nM): 18%

— patent publication US20150064287A1, “METHOD FOR TREATING ABNORMAL POLYGLUTAMINE-MEDIATED DISEASES” (NATIONAL TAIWAN NORMAL UNIVERSITY, priority 2013, published 2015)
